Test results reported in US7087628B2, “N-heterocyclyl hydrazides as neurotrophic agents” (Ortho-McNeil Pharmaceutical, Inc., priority 2001, dated 2006).

Test system: Primary Rat Hippocampal Cells
Test: Neurite outgrowth assay in primary rat hippocampal cells (MAP-2 immunofluorescence)
Type: cell-based
Conditions: neurite outgrowth response reported as percent of DMSO-treated control; MAP-2 fluorescence; cells 7 days in culture
Method: Hippocampal cells were dissected from the brains of embryonic day 18 rat pups and dissociated with trypsin (1 mg/mL) and trituration. Cells were seeded at 30,000 cells/well in 96-well plates filled with 100 μL MEM and 10% FBS. At 7 days in culture, cells were fixed with 4% paraformaldehyde and immuno-fluorescence was performed.
Cultures were incubated with normal horse serum (1:50; Vector Labs) for about 20 min, rinsed and then incubated with primary antibody, microtubule associated-protein 2 (anti-mouse MAP-2; 1:1000; Chemicon) for about 2 h at about RT. Following primary antibody, cultures were rinsed and incubated with fluorescein anti-mouse IgG (rat absorbed; 1:50; Vector Labs) for about 1 h. After fluorescein incubation, the cultures were rinsed and read in PBS on a fluorescent plate reader (excitation: 485 nm; emission: 530 nm). A compound was regarded as active if the neurite outgrowth response was greater than the mean DMSO-treated control response on the same plate. The response to test compound was reported as percent of DMSO-treated control. The signal-to-noise separation was consistent: the fluorescence from DMSO control wells is at least two-fold greater than blank wells.

SMILES: CCC(C)(C)C(=O)C(=O)N1CCCC1C(=O)NNc1cc(C)c2c(C)nn(C)c2n1 (stereo not shown) [(4)]
- Rat Hippocampal Cell Response: 105

SMILES: CCC(C)(C)C(=O)C(=O)N1CCCC1C(=O)NNc1cc(C(F)(F)F)cc(C)n1 (stereo not shown) [(6)]
- Rat Hippocampal Cell Response: <100

SMILES: CCC(C)(C)C(=O)C(=O)N1CCCC1C(=O)NN(C)c1cc(C(F)(F)F)cc(C)n1 (stereo not shown) [(7)]
- Rat Hippocampal Cell Response: <100

SMILES: CCC(C)(C)C(=O)C(=O)N1CCCC1C(=O)NNc1ccc2ccccc2n1 (stereo not shown) [(2)]
- Rat Hippocampal Cell Response: 107

SMILES: Cc1cc(C(F)(F)F)cc(NNC(=O)C2CCCCN2C(=O)C(=O)c2cccs2)n1 (stereo not shown) [Compound (9), 1-(2-Oxo-2-thiophen-2-yl-acetyl)piperidine-2-carboxylic acid N′-(6-methyl-4-trifluoromethyl-pyridin-2-yl)-hydrazide]
- Rat Hippocampal Cell Response: 118

SMILES: CCC(C)(C)C(=O)C(=O)N1CCCC1C(=O)NNc1ccccn1 (stereo not shown) [Compound (1), 1-(3,3-Dimethyl-2-oxo-pentanoyl)-pyrrolidine-2-carboxylic acid N′-pyridine-2-yl-hydrazide]
- Rat Hippocampal Cell Response: 157

SMILES: O=C(NNc1ccccn1)[C@@H]1CCN1S(=O)(=O)Cc1ccccc1 [Compound (10), 2-Azetidinecarboxylic acid, 1-[(phenylmethyl)sulfonyl]-, 2-(2-pyridinyl)hydrazide, (2S)-]
- Rat Hippocampal Cell Response: 115

SMILES: CCC(C)(C)C(=O)C(=O)N1CCCC1C(=O)NNc1ccncc1Br (stereo not shown) [(3)]
- Rat Hippocampal Cell Response: 106

SMILES: CCC(C)(C)C(=O)C(=O)N1CCCC1C(=O)NNc1ncc(C(F)(F)F)cc1Cl (stereo not shown) [(8)]
- Rat Hippocampal Cell Response: 106

SMILES: CCC(C)(C)C(=O)C(=O)N1CCCC1C(=O)NNc1c([N+](=O)[O-])c(C)nn1C (stereo not shown) [(5)]
- Rat Hippocampal Cell Response: <100
